Measurements as given in ChEMBL document CHEMBL1201862, “PubChem BioAssay data set” (2004).
Counter-ions that a name gives are not always drawn. The source made the active and inactive calls.

Legend:
[1] = molecular target: Melanocortin receptor 4 (Homo sapiens, UniProt P32245); assay type: functional, cell-based;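 note: Cell-based assay with luminescence read-out, confirmatory dose-response testing for agonist activity of biased ligands at MC4R; human U2OS cells with tagged receptor and beta-arrestin; potency of agonists that increase receptor coupling to beta-arrestin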
[2] = NIH-3T3 fibroblast cytotoxicity, dose response, cytotoxicity control, cell-based, fluorescence, Alamar Blue, secondary assay (AID 2327); assay type: functional;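 note: NIH-3T3 mouse fibroblasts cultured with fluconazole at 8 µg/mL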
[3] = molecular target: T1, Serine/threonine-protein phosphatase (Candida dubliniensis (strain CD36 / CBS 7987 / NCPF 3949 / NRRLY-17841) (Yeast), UniProt B9W6M3); assay: calcineurin pathway inhibitors in yeast reporter, dose response, S. cerevisiae, CDRE-lacZ, luminescence, secondary (AID 2388); assay type: functional, cell-based;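 note: yeast reporter cells carrying a calcineurin-responsive lacZ construct stimulated with calcium chloride; luminescent beta-galactosidase reporter signal in whole cells rather than isolated phosphatase activity; potency for inhibition where a drop in reporter signal means calcineurin blockade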
T1 sequence (B9W6M3 whole entry): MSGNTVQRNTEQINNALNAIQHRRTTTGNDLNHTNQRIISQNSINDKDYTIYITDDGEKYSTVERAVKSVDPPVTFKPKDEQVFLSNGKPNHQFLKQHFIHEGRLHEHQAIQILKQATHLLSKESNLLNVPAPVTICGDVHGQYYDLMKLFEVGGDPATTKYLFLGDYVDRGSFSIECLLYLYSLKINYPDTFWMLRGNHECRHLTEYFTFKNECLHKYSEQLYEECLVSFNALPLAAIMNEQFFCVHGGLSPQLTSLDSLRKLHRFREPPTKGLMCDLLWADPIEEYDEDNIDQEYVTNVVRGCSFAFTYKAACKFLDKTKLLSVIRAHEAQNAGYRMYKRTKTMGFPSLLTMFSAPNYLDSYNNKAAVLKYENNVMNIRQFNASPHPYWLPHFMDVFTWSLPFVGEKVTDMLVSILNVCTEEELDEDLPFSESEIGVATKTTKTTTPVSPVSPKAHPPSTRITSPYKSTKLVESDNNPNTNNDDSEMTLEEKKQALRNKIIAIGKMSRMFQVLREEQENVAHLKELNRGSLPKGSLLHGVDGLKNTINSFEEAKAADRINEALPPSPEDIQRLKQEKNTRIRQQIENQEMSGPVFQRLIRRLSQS

[4] = inhibitors of intracellular T. cruzi replication, confirmation, NIH3T3 host cells, beta-gal luminescence (AID 2044); assay type: functional, cell-based;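 note: intracellular parasites grown in NIH/3T3 mouse fibroblasts as host cells; luminescent beta-galactosidase reporter signal from transgenic T. cruzi replicating inside host cells; inhibitors lower the luminescence signal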
[5] = molecular target: Heat shock protein HSP 90-alpha (Homo sapiens, UniProt P07900); assay type: functional, organism-based
[6] = C. albicans growth with fluconazole, confirmation, fluorescence, retest (AID 2467); assay type: functional, cell-based
[7] = cytotoxicity toward NIH3T3 fibroblasts, dose response, counter-screen, cell-based, ATP luminescence, mouse fibroblasts (AID 2010); assay type: functional;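 note: cells exposed to compound for about 90 hours before reading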
[8] = molecular target: Beta-galactosidase (Escherichia coli, UniProt Q8VNN2); assay: beta-galactosidase enzyme inhibitors and activators, dose response, artefact control for CCR6 antagonist project, biochemical, E. coli enzyme, set 3 (AID 504712); assay type: functional
[9] = NIH-3T3 fibroblast cytotoxicity, dose response, cytotoxicity control for antifungal single agent project, cell-based, Alamar Blue, dry powder (AID 602188); assay type: functional
[10] = molecular target: ATP-dependent molecular chaperone HSP82 (Candida albicans (strain WO-1) (Yeast), UniProt C4YTQ8); assay: loss of DOC-induced GRE-beta-galactosidase reporter signal, dose response, Hsp90 inhibitor project, S. cerevisiae, luminescence (AID 2400); assay type: functional, cell-based;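 note: beta-galactosidase luminescence from glucocorticoid response element reporter as proxy for Hsp90 function; inhibitor potency where signal loss means Hsp90 inhibition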
[11] = molecular target: Ras and Rab interactor 1/Tyrosine-protein kinase ABL1 (Homo sapiens, UniProt P00519+Q13671); assay type: functional;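 note: biochemical TR-FRET dose-response test measuring inhibition of binding between Rin1 and Abl proteins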
Ras and Rab interactor 1/Tyrosine-protein kinase ABL1, sequence (P00519 whole entry): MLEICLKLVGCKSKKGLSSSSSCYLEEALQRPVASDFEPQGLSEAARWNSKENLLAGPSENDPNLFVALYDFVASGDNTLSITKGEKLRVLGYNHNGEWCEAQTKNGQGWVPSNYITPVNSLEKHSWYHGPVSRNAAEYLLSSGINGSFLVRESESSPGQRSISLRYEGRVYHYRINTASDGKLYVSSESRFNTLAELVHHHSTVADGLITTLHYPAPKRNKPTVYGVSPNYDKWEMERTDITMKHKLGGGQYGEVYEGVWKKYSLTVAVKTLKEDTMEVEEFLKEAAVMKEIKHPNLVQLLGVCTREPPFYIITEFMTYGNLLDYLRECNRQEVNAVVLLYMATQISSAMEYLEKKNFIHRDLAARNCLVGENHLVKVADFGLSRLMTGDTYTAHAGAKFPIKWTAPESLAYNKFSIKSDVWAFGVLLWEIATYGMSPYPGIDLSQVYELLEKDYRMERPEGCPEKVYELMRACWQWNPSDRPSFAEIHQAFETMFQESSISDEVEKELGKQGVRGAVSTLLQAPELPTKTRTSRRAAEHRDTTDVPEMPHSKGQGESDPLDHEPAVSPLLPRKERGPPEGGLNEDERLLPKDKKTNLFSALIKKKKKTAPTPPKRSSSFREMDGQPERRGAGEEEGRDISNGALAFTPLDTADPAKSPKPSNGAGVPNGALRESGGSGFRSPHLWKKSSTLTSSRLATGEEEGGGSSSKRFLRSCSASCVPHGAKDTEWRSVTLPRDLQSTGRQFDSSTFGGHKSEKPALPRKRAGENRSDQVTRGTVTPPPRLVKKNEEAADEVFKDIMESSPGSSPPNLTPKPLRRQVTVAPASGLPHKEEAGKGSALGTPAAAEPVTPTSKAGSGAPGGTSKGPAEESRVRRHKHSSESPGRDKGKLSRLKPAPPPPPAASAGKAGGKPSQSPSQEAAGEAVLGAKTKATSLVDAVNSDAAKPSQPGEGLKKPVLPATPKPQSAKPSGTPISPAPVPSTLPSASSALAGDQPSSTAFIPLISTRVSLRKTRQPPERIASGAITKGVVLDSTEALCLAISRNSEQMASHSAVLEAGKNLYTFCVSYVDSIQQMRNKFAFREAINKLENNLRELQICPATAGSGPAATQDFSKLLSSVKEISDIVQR
Ras and Rab interactor 1/Tyrosine-protein kinase ABL1, sequence (Q13671 whole entry): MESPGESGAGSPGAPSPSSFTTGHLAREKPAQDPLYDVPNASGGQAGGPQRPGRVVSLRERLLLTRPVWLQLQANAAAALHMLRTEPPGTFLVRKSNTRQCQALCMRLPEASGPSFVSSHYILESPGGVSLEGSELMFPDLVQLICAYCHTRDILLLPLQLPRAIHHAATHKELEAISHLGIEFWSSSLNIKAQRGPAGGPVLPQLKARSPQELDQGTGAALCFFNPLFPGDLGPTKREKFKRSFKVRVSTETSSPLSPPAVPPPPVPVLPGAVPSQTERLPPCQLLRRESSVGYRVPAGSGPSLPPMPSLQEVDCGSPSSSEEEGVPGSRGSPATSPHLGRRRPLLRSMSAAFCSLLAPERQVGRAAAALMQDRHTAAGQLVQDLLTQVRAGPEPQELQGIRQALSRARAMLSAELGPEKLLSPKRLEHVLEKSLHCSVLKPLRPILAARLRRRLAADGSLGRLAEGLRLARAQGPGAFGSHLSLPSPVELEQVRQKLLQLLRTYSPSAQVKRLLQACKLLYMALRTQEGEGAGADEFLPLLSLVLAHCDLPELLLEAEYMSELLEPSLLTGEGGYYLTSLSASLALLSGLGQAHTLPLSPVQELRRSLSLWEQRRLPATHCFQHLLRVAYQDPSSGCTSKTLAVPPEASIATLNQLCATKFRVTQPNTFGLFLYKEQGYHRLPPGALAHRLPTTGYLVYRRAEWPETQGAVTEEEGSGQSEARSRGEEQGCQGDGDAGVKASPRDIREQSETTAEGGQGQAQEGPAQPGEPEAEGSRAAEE

[12] = molecular target: Prothrombin (Bos taurus, UniProt P00735); assay: thrombin inhibition, dose response, biochemical, fluorescence polarization, uHTS hits (AID 602369); assay type: functional
[13] = molecular target: 26S proteasome non-ATPase regulatory subunit 14 (Homo sapiens, UniProt O00487); assay: inhibition of proteasome subunit RPN11 – biochemical, fluorescence polarization, uHTS hits, confirmation (AID 602368); assay type: functional
[14] = molecular target: 72 kDa type IV collagenase (Homo sapiens, UniProt P08253); assay: Dose Response validation of uHTS RPN11 inhibitor hits using a MMP-2 Fluorescence assay.; assay type: functional
72 kDa type IV collagenase, sequence (P08253 whole entry): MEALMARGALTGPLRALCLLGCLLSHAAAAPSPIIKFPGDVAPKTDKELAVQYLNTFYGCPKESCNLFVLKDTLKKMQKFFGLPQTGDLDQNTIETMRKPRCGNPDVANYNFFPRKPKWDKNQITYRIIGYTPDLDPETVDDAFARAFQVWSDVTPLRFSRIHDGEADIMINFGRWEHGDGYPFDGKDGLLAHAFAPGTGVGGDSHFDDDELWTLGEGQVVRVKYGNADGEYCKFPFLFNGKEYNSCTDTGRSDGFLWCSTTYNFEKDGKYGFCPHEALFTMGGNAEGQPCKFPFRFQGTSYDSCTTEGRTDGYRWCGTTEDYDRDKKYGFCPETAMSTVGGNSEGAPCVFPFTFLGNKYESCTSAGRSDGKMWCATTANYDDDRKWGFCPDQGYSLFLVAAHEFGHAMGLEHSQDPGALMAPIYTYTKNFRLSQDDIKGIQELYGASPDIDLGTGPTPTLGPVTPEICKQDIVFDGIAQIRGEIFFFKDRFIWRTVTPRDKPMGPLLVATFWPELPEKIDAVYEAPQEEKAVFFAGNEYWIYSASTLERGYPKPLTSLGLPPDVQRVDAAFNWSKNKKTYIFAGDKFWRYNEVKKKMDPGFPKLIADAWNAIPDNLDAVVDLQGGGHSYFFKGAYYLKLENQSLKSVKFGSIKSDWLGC

[15] = molecular target: T2, Aryl hydrocarbon receptor (Homo sapiens, UniProt P35869); conditions: Potency;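 note: confirmatory quantitative high-throughput screen measuring activation of the AhR signaling pathway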
T2 sequence (P35869 whole entry): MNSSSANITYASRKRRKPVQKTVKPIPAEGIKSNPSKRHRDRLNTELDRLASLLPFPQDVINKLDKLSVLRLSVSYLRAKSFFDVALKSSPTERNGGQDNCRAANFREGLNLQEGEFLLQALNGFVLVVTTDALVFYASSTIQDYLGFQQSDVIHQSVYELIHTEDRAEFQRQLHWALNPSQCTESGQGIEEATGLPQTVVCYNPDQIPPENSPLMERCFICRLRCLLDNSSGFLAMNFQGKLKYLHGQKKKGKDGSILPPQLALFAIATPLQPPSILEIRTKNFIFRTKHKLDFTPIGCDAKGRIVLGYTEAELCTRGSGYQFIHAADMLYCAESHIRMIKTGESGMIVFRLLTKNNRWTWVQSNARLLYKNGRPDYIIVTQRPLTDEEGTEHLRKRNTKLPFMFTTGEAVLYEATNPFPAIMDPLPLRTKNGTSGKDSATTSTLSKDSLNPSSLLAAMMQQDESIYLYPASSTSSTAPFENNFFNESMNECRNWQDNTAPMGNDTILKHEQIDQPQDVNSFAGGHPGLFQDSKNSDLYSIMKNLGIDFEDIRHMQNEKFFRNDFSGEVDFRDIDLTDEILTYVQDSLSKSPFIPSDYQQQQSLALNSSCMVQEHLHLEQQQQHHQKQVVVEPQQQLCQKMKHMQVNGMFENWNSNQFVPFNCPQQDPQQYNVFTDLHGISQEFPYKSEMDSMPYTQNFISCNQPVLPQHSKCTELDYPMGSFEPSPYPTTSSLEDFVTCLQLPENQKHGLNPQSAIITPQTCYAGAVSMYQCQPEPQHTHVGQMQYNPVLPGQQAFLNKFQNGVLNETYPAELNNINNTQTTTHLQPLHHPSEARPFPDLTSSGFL

[16] = molecular target: T3, Apoptotic protease-activating factor 1 (Homo sapiens, UniProt O14727); assay: SAR analysis of small molecule Activators of Apaf-1 in a Fluorescent assay.; assay type: functional; conditions: read-out: EC50_Mean;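 note: caspase-3 cleavage of fluorogenic Rh110 DEVD substrate downstream of apoptosome activation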
T3 sequence (O14727 whole entry): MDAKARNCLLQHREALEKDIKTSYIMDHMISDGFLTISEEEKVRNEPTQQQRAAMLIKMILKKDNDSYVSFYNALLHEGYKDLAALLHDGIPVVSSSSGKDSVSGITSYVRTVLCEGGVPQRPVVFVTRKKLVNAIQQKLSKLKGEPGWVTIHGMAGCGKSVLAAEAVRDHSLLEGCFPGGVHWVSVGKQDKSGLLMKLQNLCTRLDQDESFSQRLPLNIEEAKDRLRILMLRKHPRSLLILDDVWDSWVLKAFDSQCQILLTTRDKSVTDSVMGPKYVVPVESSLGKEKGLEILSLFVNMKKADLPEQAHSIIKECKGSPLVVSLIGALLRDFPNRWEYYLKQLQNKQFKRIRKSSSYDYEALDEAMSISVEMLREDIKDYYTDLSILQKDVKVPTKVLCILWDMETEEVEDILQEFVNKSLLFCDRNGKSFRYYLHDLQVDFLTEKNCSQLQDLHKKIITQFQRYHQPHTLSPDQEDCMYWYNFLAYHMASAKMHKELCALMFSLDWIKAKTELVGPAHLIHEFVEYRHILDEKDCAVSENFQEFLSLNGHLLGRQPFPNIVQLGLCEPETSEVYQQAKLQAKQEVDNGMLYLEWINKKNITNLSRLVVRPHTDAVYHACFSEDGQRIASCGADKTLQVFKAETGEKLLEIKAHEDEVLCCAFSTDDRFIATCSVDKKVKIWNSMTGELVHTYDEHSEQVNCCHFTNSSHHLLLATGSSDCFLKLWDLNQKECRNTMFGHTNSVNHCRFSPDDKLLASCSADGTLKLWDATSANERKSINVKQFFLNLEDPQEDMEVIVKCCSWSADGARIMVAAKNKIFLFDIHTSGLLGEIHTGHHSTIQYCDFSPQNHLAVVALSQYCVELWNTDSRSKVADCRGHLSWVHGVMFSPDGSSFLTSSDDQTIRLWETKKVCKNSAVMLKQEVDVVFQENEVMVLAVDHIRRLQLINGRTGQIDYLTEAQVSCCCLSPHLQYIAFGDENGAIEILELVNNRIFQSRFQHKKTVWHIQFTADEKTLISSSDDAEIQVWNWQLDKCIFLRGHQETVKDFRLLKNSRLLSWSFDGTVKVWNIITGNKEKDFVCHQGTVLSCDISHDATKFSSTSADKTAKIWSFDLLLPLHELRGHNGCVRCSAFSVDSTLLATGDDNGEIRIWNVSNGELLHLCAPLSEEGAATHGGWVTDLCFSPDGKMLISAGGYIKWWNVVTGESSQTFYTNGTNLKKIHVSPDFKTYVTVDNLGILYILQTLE

[17] = molecular target: DNA dC->dU-editing enzyme APOBEC-3A (Homo sapiens, UniProt P31941); assay: SAR analysis of small molecule inhibitors of APOBEC3A DNA Deaminase via a fluorescence-based single-stranded DNA deaminase assay.; assay type: functional; conditions: read-out: IC50_Mean
DNA dC->dU-editing enzyme APOBEC-3A, sequence (P31941 whole entry): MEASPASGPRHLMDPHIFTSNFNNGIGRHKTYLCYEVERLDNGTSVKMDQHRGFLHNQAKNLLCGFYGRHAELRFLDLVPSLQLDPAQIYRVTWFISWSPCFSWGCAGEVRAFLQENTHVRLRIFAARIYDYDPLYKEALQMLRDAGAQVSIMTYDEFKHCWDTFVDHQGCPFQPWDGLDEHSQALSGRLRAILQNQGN

[18] = molecular target: DNA dC->dU-editing enzyme APOBEC-3G (Homo sapiens, UniProt Q9HC16); assay: APOBEC3G deaminase inhibitors, SAR follow-up, biochemical, fluorescence, single-stranded DNA substrate (AID 602136); assay type: functional; conditions: read-out: IC50_Mean
DNA dC->dU-editing enzyme APOBEC-3G, sequence (Q9HC16 whole entry): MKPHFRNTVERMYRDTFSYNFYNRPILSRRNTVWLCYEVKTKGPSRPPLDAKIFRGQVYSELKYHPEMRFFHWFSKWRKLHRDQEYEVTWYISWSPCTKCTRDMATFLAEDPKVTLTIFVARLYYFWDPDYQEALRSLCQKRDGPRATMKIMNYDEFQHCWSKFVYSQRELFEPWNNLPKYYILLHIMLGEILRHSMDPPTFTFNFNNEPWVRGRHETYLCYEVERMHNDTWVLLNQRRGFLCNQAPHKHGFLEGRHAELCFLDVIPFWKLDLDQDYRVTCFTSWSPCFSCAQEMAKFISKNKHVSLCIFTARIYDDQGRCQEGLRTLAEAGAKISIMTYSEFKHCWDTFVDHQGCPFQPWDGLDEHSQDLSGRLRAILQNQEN

[19] = molecular target: Glycogen synthase kinase-3 beta (Homo sapiens, UniProt P49841); assay type: functional;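 note: value comes from a broad kinome profiling panel, with GSK3B as the panel member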
Glycogen synthase kinase-3 beta, sequence (P49841 whole entry): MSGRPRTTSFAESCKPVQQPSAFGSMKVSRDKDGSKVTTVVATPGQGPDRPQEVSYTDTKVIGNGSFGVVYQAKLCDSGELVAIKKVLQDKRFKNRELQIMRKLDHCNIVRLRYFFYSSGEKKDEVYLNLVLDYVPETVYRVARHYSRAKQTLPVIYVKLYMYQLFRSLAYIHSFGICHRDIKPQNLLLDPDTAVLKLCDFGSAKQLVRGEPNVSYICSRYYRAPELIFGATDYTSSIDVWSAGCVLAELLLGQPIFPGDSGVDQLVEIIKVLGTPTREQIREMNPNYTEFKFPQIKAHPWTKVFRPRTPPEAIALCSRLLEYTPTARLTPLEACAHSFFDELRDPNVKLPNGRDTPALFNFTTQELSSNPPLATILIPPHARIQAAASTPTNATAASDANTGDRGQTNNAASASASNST

[20] = molecular target: Dual specificity protein kinase CLK4 (Homo sapiens, UniProt Q9HAZ1); assay type: functional
[21] = molecular target: Serine/threonine-protein kinase pim-1 (Homo sapiens, UniProt P11309); assay type: functional
[22] = molecular target: Homeodomain-interacting protein kinase 2 (Homo sapiens, UniProt Q9H2X6); assay type: functional;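 note: measured within a kinome-wide kinase profiling panel, HIPK2 being one panel member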
Homeodomain-interacting protein kinase 2, sequence (Q9H2X6 whole entry): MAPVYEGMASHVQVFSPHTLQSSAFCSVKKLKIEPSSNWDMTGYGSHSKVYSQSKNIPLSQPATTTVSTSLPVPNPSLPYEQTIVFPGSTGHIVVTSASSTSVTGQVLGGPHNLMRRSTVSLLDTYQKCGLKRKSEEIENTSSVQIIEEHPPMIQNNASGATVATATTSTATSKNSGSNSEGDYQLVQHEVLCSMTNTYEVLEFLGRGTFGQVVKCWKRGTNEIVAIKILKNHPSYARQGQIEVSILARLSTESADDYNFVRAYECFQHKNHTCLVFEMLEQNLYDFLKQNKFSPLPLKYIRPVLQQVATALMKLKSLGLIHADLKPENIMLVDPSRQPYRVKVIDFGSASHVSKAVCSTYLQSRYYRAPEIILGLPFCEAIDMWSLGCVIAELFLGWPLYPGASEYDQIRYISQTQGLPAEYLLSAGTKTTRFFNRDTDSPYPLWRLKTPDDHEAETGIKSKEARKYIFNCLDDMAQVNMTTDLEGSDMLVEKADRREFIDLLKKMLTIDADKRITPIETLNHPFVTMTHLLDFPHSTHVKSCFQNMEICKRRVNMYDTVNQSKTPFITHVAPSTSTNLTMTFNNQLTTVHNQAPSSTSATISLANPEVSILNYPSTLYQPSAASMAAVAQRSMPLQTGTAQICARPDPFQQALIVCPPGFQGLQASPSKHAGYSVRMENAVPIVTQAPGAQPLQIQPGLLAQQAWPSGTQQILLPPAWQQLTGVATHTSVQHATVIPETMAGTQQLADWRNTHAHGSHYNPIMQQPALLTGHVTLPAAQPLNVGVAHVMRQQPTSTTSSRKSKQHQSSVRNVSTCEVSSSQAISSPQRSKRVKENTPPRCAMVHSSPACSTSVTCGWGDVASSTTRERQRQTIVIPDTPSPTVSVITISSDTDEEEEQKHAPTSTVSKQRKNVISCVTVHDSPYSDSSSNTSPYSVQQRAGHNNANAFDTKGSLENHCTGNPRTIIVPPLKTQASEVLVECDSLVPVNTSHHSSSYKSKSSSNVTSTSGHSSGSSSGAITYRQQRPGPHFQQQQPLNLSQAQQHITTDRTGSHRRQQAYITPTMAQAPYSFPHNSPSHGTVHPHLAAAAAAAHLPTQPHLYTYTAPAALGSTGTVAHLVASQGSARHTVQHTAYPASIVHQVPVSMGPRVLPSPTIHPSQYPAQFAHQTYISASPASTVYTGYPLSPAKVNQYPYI

[23] = molecular target: cAMP-dependent protein kinase catalytic subunit alpha (Homo sapiens, UniProt P17612); assay type: functional
[24] = molecular target: Mitogen-activated protein kinase kinase kinase kinase 4 (Homo sapiens, UniProt O95819); assay type: functional
[25] = molecular target: Interleukin-1 receptor-associated kinase 4 (Homo sapiens, UniProt Q9NWZ3); assay type: functional
[26] = molecular target: Cell division cycle 7-related protein kinase (Homo sapiens, UniProt O00311); assay type: functional;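 note: value obtained from a kinome-wide kinase panel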
[27] = molecular target: T4, Interleukin-8 (Homo sapiens, UniProt P10145); assay: Dose Response confirmation of uHTS small molecule hits for cystic fibrosis induced NFkb Inhibitors in a TNFa-induced IL8 counterscreen.; assay type: functional; conditions: read-out: IC50_Mean
T4 sequence (P10145 whole entry): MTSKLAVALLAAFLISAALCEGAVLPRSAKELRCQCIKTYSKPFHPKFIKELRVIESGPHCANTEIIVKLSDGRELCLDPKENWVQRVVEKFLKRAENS

[28] = molecular target: Kallikrein-7 (Homo sapiens, UniProt P49862); assay: Fluorescence Intensity-based biochemical primary high throughput dose response assay to identify activators of kallikrein-7 (K7) zymogen.
[29] = molecular target: T4, Interleukin-8; assay: Dose Response confirmation of uHTS small molecule hits for cystic fibrosis induced NFkb Inhibitors in a PAF-induced IL8 counterscreen.; assay type: functional; conditions: read-out: IC50_Mean
[30] = molecular target: T5, DNA repair and recombination protein RAD54-like (Homo sapiens, UniProt Q92698); assay: inhibitors of human RAD54 branch migration, confirmation, biochemical, fluorescence, cherry-picked samples, dose series (AID 651657); assay type: functional
T5 sequence (Q92698 whole entry): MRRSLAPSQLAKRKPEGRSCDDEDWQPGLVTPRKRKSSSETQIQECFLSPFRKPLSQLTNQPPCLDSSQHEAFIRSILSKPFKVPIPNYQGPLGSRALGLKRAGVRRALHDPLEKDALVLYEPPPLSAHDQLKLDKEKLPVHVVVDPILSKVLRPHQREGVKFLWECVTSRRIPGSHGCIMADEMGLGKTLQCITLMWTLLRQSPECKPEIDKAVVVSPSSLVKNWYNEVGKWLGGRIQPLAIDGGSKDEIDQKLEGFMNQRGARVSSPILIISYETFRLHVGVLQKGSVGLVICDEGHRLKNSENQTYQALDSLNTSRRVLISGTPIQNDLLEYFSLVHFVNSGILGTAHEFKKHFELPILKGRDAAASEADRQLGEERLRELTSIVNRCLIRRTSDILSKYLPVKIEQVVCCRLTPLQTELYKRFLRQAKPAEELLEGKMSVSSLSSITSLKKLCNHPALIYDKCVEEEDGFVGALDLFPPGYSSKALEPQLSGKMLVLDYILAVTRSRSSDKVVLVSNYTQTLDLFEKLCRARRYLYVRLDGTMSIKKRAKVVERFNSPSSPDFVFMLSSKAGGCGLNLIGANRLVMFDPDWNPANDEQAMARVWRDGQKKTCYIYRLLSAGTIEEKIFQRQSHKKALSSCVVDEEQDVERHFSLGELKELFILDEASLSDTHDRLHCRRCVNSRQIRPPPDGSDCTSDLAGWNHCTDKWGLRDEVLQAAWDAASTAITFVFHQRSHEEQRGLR

Structure (SMILES): N#C/C(=C\c1cn(CCOc2ccccc2F)c2ccccc12)C(=O)NCc1cccs1
- EC50 [1]: > 89.2 µM (inactive)

Structure (SMILES): O=C(Oc1c(Cl)cc(Cl)c2cccnc12)c1ccco1
- EC50 [2]: 56.7 µM (inconclusive)
- EC50 [3]: > 180 µM (inactive)
- EC50 [4]: 2.12 µM (active)
- AC50 [5]: < 0.195 µM (active)
- EC50 [6]: 0.098 µM (active)
- EC50 [7]: 10.1 µM (active)
- IC50 [8]: > 66.6 µM (inactive)
- AC50 [9]: 2.63 µM (active)
- EC50 [10]: 15.3 µM (active)

Structure (SMILES): COC(=O)Nc1csc2c1NC(=O)CCCC2
- IC50 [11]: 5.54 µM (active)

Structure (SMILES): COc1ccc(Cc2c(C(C)(C)C)nc3ccc(Cl)cn23)c(C)c1
- IC50 [12]: 17.7 µM (active)
- IC50 [13]: 22.5 µM (active)
- IC50 [14]: > 100 µM (inactive)

Structure (SMILES): O=C(Oc1ccccc1)c1cccc(C(=O)Oc2ccccc2)c1
- AC50 [15]: 7.94 µM (inconclusive)

Structure (SMILES): CC(C)C(=O)Nc1ccc(N)cc1
- EC50 [16]: > 100 µM (inactive)

Structure (SMILES): Cc1nc2sc3c(c2c2nncn12)CCCC3
- IC50 [17]: > 99 µM (inactive)
- IC50 [18]: > 99 µM (inactive)

Structure (SMILES): COCC(C)Nc1cc(-c2c[nH]c3ncccc23)cc(Cl)n1 (stereo not given)
- Ki [19]: 0.251 µM (active)
- Ki [20]: 0.00631 µM (active)
- Ki [21]: 0.794 µM (active)
- Ki [22]: 0.0631 µM (active)
- Ki [23]: 0.251 µM (active)
- Ki [24]: 0.01 µM (active)
- Ki [25]: 0.794 µM (active)
- Ki [26]: 0.002 µM (active)

Structure (SMILES): COc1ccc2c(c1)[nH]c1c(C)nccc12 [HARMINE HYDROCHLORIDE]
- IC50 [27]: > 79 µM (inactive)
- EC50 [28]: 24.8 µM (inactive)
- IC50 [29]: 6.96 µM (active)
- AC50 [30]: 14.4 µM (active)
